Data published in patent publication US5776957A, “Nornicotine enantiomers for use as a treatment for dopamine related conditions and disease states” (The University of Kentucky Research Foundation, priority 1996, dated 1998).
“Also recorded” adds a separate entry of the source. Where two headings read alike, the source gives them in different places. Each block holds one compound with its values, some of them ahead of it.

Columns and labels:
[1] = Stolerman et al. (1995), cited from earlier work
[2] = system: [3H]DA-preloaded rat striatal slices (nicotinic receptors); experiment: [3H]overflow (DA release) from [3H]DA-preloaded rat striatal slices; assay type: cell-based
Description: In vitro pharmacological effects of NIC are generally investigated using either striatal slices or synaptosome preparations preloaded with [^3 H] DA. NIC-evoked [^3 H]overflow is obtained routinely in the presence of nomifensine (10 μM; a DA uptake inhibitor) and for pargyline (10 μM, a monoamine oxidase inhibitor) in the superfusion buffer, such that [^3 H]overflow represents primarily [^3 H]DA rather than [H]DA-metabolites (Zumstein et al., 1981, Hoffmann and Cubeddu, 1982, Dwoskin and Zahniser, 1986, Rapier et al., 1988), and for this reason, [^3 H]overflow also will be referred to as [^3 H] DA release in the proposal.
The present studies use striatal slices superfused with various concentrations of NIC or norNIC for prolonged periods.
FIG. 4. […] Insets illustrate the response to the low concentration range. […] NIC exposure indicated by the bar under time course. Note: 1-min sample collection period. […] N=4 rats.
Rat striatal slices were depolarized with 10 μM NIC, 20 mM K+or 1 Hz, 60 pulses or 3 Hz, 180 pulses electrical field stimulation. […] N=4.
MEC or DHβE was included in the superfusion buffer for 60 min prior to the addition of NIC, and superfusion continued for 60 min in the presence of NIC+antagonist.

[3] = Locomotor activity assay, acute and repeated treatment, S(-) nicotine challenge, saline challenge; assay type: in vivo, rat; settings: for behavioral sensitization after repeated administration: 8 injections once every 48 hrs, nicotine 1 mg/kg, R(+) 0.3-10 mg/kg, S(-) nornicotine 10 mg/kg; for enabling of sensitization to S(-) nicotine: repeated R(+) nornicotine, S(-) nicotine challenge
Description: (I mg/kg), norNIC (0.3-10 mg/kg) or R(+) norNIC (0.3-10 mg/kg) was administered peripherally (s.c., 8 injections once every 48 hrs) to groups of rats and locomotor activity was assessed for 50 min immediately after each injection.
In the present study, S(-) nicotine (1 mg/kg), R(+) nornicotine (1-10 mg/kg), S(-) nornicotine (1-10 mg/kg), or vehicle (saline) were administered s.c. to groups of rats (n=6) acutely or repeatedly (8 injections once every 48 hrs). Locomotor activity was measured during 50 min sessions immediately following drug or vehicle administration.
Male Sprague-Hawley rats (225-250 g) from Harlan Laboratories were housed two per cage with free access to food and water.
Activity was recorded automatically in a wooden test-chamber measuring 30×28×43 cm high. The chamber had white walls and a wire mesh floor over pine chip bedding. Two photobeams located 4.5 cm above the floor divided the chamber into four equal quadrants. Electromechanical equipment located in an adjacent room recorded photobeam interruptions automatically. A white noise generator provided an ambient 70 dB background noise in the test room in order to minimize extraneous sounds that might influence the animal's behavior in the test chamber. Rats were habituated to the chamber for 50 min on each of three consecutive days.
On the day immediately after the third habituation session, rats were randomly divided into groups (n=6/group) and were administered s.c. either S(-) nicotine (1 mg/kg), R(+) nornicotine (0.3, 1, 3 and 10 mg/kg), or vehicle (saline) to determine acute drug effects on locomotor activity. In a separate experiment, rats (n=6/group) were administered s.c. either S(-) nicotine (1 mg/kg), S(-) nornicotine (0.3, 1, 3 and 10 mg/kg), or vehicle (saline). To determine the effect of repeated drug administration on locomotor activity, drug or vehicle was administered respectively in the test-room once every 48 hrs for a total of 8 injections. After each injection, locomotor activity was recorded during a 50 min session (five 10-min blocks). On the ninth injection day (48 hrs following injection 8), each group of rats was administered a challenge dose (1 mg/kg) of S(-) nicotine in the test-room, and locomotor activity was determined immediately thereafter. On the tenth injection day, each group of rats was administered saline and locomotor activity recorded to determine potential conditioning effects of the repeated drug administration.
Post hoc analysis of pairwise comparisons was performed with Duncan's New Multiple Range test.

[4] = system: nicotinic receptor sites in the brain; experiment: displacement of nicotine from nicotinic receptor sites in the brain; assay type: binding
[5] = Stolerman et al., 1984; cited from earlier work
[6] = system: N-methyl-D-aspartate(NMDA) receptor; settings: MK-801 site within the channel; cited from earlier work
[7] = cited from earlier work
[8] = water, ethyl alcohol, ether, chloroform, benzene, ethyl acetate, carbon disulfide; cited from earlier work
[9] = GC-MS, Deutsch et al., 1992; cited from earlier work
[10] = i.p. [14C-N-methyl]NIC, HPLRC; cited from earlier work
[11] = NIC and metabolites in rat brain after s.c. injection of radiolabelled NIC; assay type: in vivo
Description: NIC metabolism studies involving HPLRC analysis invariably utilize NIC with a radiolabel (i.e., [^3 H], [^14 C] or [^11 C]) incorporated in the methyl group. However N-demethylated NIC metabolites (norNIC and norCOT) cannot be detected after injection of such radionuclides, since the label is lost in the formation of these metabolites. NIC and four NIC metabolites have recently been detected in rat brain 4 hr after s.c. injection of [2'-^14 C]NIC (FIG. 3, Table I). Three of these metabolites have been identified as COT, norNIC and norCOT. A fourth minor metabolite (Peak B) has not been completely identified but appears to be an N-demethylated metabolite, since it is not detected in the [^3 H-N-methyl]NIC studies.
COT, and therefore, is unlikely to originate from COT N-demethylation. 3-HydroxyCOT and its glucuronide conjugate were not detected as metabolites of either NIC or COT in brain, even though these are major biotransformation products in the periphery (Crooks, 1993).
It appears that NIC metabolites which accumulate with a time course that correlates with the development of behavioral sensitization to NIC have a role in eliciting sensitization to NIC. The inventors have detected NIC, COT, norNIC and norCOT in brain 4 hr following acute s.c. injection of (±)[2'-^14 C]NIC. S(-) [^3 H] -N-methyl]NIC is unsuitable for studying brain metabolism of NIC, since nor-metabolites (i.e., demethylated metabolites) cannot be detected due to [^3 H]-loss during metabolism (Crooks et al., 1995b, AP 7). Thus, commercially available (±)[2'-^14 C]NIC was used to determine NIC metabolites present in brain. This form of radiolabelled NIC provides a metabolically stable [^14 C]-label which allows measurement of all potential NIC metabolites.
A second "metabolite" (Peak A, FIG. 2) was also detected at each time point and most likely results from a combination of metabolic cleavage of the N-methyl group and dissociated-[^3 H], i e, Peak A represents an oxidized 1-carbon unit and indicates the extent of NIC N-demethylation. Note, in our subsequent studies with [2'-^14 C]NIC, Peak A was not observed, which is consistent with our interpretation of the results (Table 1).

SMILES: c1cncc([C@H]2CCCN2)c1 [R(+) nornicotine, R-(+) nornicotine]
cross-sensitization after chronic nicotine [1]: increased activity, demonstrating cross-sensitization; also recorded: increased activity (i.e., cross-sensitization)
locomotor activity, acute [1]: decreased locomotor activity
cross-sensitization after chronic nicotine ([1]; listed as R(+) norNIC): cross-sensitization to R(+) norNIC was observed
release of dopamine from presynaptic terminals ([2]; neuronal tissue): stereoselective and receptor-mediated
behavioral sensitization after repeated administration [3]: did not produce behavioral sensitization; also recorded: did not result in behavioral sensitization; also recorded: does not
behavioral sensitization after repeated administration ([3]; listed as R(+) norNIC): does not
conditioned response to repeated administration (saline challenge) ([3]; 48 hrs after S(-) nicotine challenge): did not contribute to the observed behavioral sensitization
cumulated locomotor activity after saline challenge ([3]; R(+) experiment, 0.3 mg/kg): 368 ± 39 number of photobeam interruptions/50 min session
cumulated locomotor activity after saline challenge ([3]; R(+) experiment, 1.0 mg/kg): 478 ± 40 number of photobeam interruptions/50 min session
cumulated locomotor activity after saline challenge ([3]; R(+) experiment, 3.0 mg/kg): 498 ± 44 number of photobeam interruptions/50 min session
cumulated locomotor activity after saline challenge ([3]; R(+) experiment, 10 mg/kg): 234 ± 30 number of photobeam interruptions/50 min session
locomotor activity time course ([3]; acute R(+) 0.3 mg/kg): small, but not significant, decreases
locomotor activity time course ([3]; acute R(+) 10 mg/kg, initial 20 min): significantly decreased
locomotor activity time course ([3]; acute R(+) 10 mg/kg, latter part of session): not different from the saline-control group
cumulated locomotor activity vs saline-control ([3]; acute, 0.3 and 10 mg/kg, R(+) experiment): depression in activity
locomotor activity, first 10 min ([3]; acute, R(+) 3 mg/kg s.c.): 125±17 photobeam interruptions
locomotor activity, first 10 min after S(-) nicotine challenge ([3]; repeated R(+) 1 mg/kg): 127±12 photobeam interruptions
locomotor activity, first 10 min after S(-) nicotine challenge ([3]; repeated R(+) 3 mg/kg): 136+32 photobeam interruptions
locomotor activity time course ([3]; repeated R(+) 0.3-10 mg/kg): not different from that of the saline-control group
cumulated locomotor activity after S(-) nicotine challenge ([3]; repeated R(+) 0.3 and 1 mg/kg): not different from the saline-control group
S(-) nicotine-induced stimulation, first 10 min ([3]; repeated R(+) 1-10 mg/kg): significant (P<0.001) and dose-dependent
cumulated locomotor activity after S(-) nicotine challenge ([3]; repeated R(+) 3 and 10 mg/kg): significant increases in activity
enabling of sensitization to S(-) nicotine [3]: enabled sensitization to S(-) nicotine; also recorded: dose-related sensitization to the stimulatory effect of S(-) nicotine
enabling of sensitization to S(-) nicotine ([3]; listed as R(+) norNIC): enabled an enhanced response to NIC challenge
S(-) nicotine-induced stimulation, first 10 min ([3]; repeated, R(+) 0.3 mg/kg): not significant
cumulated locomotor activity vs saline-control ([3]; repeated, R(+) 0.3 mg/kg): decreased significantly
tolerance to depressant effect ([3]; repeated, R(+) 0.3 mg/kg): tolerance did not develop
tolerance to depressant effect ([3]; repeated, R(+) 10 mg/kg): tolerance developed
cumulated locomotor activity vs saline-control ([3]; repeated, R(+) 1, 3 and 10 mg/kg): not different from that of the saline-control group
displacement of nicotine from nicotinic receptor sites [4]: cause displacement of nicotine

inhibition of NIC-evoked [3H]overflow ([2]; 10 μM NIC, concentration-dependent): robustly inhibited
effect on [3H]DA release itself ([2]; 0.01-100 μM): did not alter [^3 H]DA release itself
inhibition of norNIC-evoked [3H]overflow ([2]; high concentrations (100 μM-3 mM) of norNIC): ineffective in inhibiting
inhibition of norNIC-evoked [3H]overflow ([2]; low concentrations (<100 μM) of norNIC): effectively inhibited
mode of antagonism of norNIC response ([2]; norNIC concentration-response curve): noncompetitive
SMILES: CNC1(C)C2CCC(C2)C1(C)C (centres unmarked) [MEC, mecamylamine]
effect on nicotine interoceptive cues [5]: blocks nicotine interoceptive cues
NMDA receptor inhibition [6]: noncompetitive inhibitor
block of R(+) norNIC-induced decrease in locomotor activity [1]: blocked

SMILES: CN1CCCC1=O [N-methyl-2-pyrrolidone]
toxicity ([7]; Ames type assays and chronic exposure studies): not revealed any significant toxicity
irritation or sensitization potential ([7]; animal and human experiments): very little irritation or sensitization potential
miscibility [8]: miscible with water

SMILES: CN1C(=O)CC[C@H]1c1cccnc1 [COT, Cotinine]
presence in rat brain after peripheral NIC injection [9]: not found in rat brain
detection in mouse brain [10]: detected
detectability in brain at 18 hrs post-injection ([11]; 18 hrs): still detectable
residence time in the CNS relative to NIC ([11]; rat brain): longer residence time in the CNS than NIC
presence as metabolite in brain ([11]; rat brain, after s.c. radiolabelled NIC): major metabolite of NIC in brain
evoked [3H]overflow ([2]; concentration-dependent): concentration dependent increase
